Experimental data: patent US20240383932A1, “Phenol Prodrugs” (Lilac Therapeutics, Inc., priority 2023, published 2024)
In brackets after ≈: the same amount, converted by molar mass. Where two headings read alike, the source gives them in different places. One block for each compound: values may come before it.

Experiments:
[1] = Solubility in various buffers; format: physicochemical; settings: for pH: pH of solubility sample
Protocol: The solubility of crystalline compound 15 was measured in the various buffers.

[2] = Pharmacokinetics after single dose oral administration in rats; format: in vivo, male Sprague Dawley rats; settings: rat; for half-life: po, 50 mg/kg
Protocol: The pharmacokinetics of ivacaftor (50 mg/kg in organic and 0.25% Methyl Cellulose in water suspension) in male Sprague Dawley rats after single dose oral administration and compound 15 in 0.25% Methyl Cellulose in water suspension at 108 mg-eq/kg (50 mg/kg equivalent to free base) 324 mg-eq/kg (150 mg/kg equivalent to free base) 540 mg-eq/kg (250 mg/kg equivalent to free base) and 756 mg-eq/kg (350 mg/kg equivalent to free base) were investigated. […] The plasma concentration vs. time profile for these experiments are show in FIG. 3.

[3] = male, Sprague Dawley, plasma, ivacaftor 50 mg/kg, Crystalline Suspension (0.25% Methyl Cellulose in water)

SMILES: CC(C)OC(=O)[C@H](C)N[P@@](=O)(OCCN1CCOCC1)Oc1cc(NC(=O)c2c[nH]c3ccccc3c2=O)c(C(C)(C)C)cc1C(C)(C)C.O=C(O)CCC(=O)O [Compound 15]
Observation after 24 hrs ([1]; FaSSIF.V2): Suspension | solubility compared with ivacaftor, in words ([1]; FeSSIF and simulated gastric fluid): significant improvement in solubility | Observation after 24 hrs ([1]; FeSSIF.V2): Clear | Observation after 24 hrs ([1]; SGF): Clear | Observation after 24 hrs ([1]; Water): Slightly Hazy | solubility ([1]; aqueous buffer, thermodynamic from solid, pH 6.8 PO4^3− buffer, read-out: Solubility): < 2 µg/mL | Observation after 24 hrs ([1]; pH 6.8 PO4^3− buffer): Suspension | pH ([1]; FaSSIF.V2): 6.09 | pH ([1]; FeSSIF.V2): 5.83 | pH ([1]; SGF): 1.96 | pH ([1]; Water): 3.57 | pH ([1]; pH 6.8 PO4^3− buffer): 6.71 | solubility ([1]; simulated gastric fluid, thermodynamic from solid, SGF, read-out: Solubility): 1430 µg/mL | solubility ([1]; thermodynamic from solid, FaSSIF.V2, read-out: Solubility): 86 µg/mL | solubility ([1]; thermodynamic from solid, FeSSIF.V2, read-out: Solubility): 1810 µg/mL | solubility ([1]; water, thermodynamic from solid, read-out: Solubility): 787 µg/mL | dose dependence of exposure of ivacaftor, in words ([2]; crystalline aqueous suspension, dosed up to 350 mg/kg): dose proportional increase in the exposure of ivacaftor | reduction in AUC with crystalline aqueous suspension, in words ([2]; dosed up to 350 mg/kg): such reduction was not observed

solubility ([1]; FaSSIF.V2, fassif, thermodynamic from solid, read-out: Solubility): 15 µg/mL (≈ 38.2 µM) | solubility ([1]; FeSSIF.V2, fessif, thermodynamic from solid, read-out: Solubility): 152 µg/mL (≈ 387 µM) | solubility ([1]; FeSSIF.V2, ivacaftor as SDD, read-out: Solubility): 600 µg/mL (≈ 1530 µM) | solubility ([1]; SGF, simulated gastric fluid, thermodynamic from solid, read-out: Solubility): 21 µg/mL (≈ 53.5 µM) | solubility ([1]; Water): 7 µg/mL (≈ 17.8 µM) | pH ([1]; FaSSIF.V2): 6.35 | pH ([1]; FeSSIF.V2): 5.91 | pH ([1]; SGF): 2.20 | pH ([1]; Water): 7.35 | pH ([1]; pH 6.8 PO4^3− buffer): 6.71 | solubility ([1]; phosphate buffer, aqueous buffer, thermodynamic from solid, pH 6.8 PO4^3− buffer, read-out: Solubility): 8 µg/mL (≈ 20.4 µM) | AUC(0-t) [2, 3]: 14600 ng·h/mL | Cmax [2, 3]: 586 ng/mL | half-life ([2]; male, Sprague Dawley, plasma, Organic Solution): 10 h | half-life [2, 3]: 20 h | reduction in AUC, crystalline suspension vs organic solution formulation ([2]; ivacaftor 50 mg/kg): 92%
SMILES: CC(C)(C)c1cc(C(C)(C)C)c(NC(=O)c2c[nH]c3ccccc3c2=O)cc1O [ivacaftor, N-(2,4-di-tert-butyl-5-hydroxyphenyl)-4-oxo-1,4-dihydroquinoline-3-carboxamide, reference compound]
